Laboratory results reported in patent publication US20120088737A2, “NOVEL ACYL GUANIDINE DERIVATIVES” (AJINOMOTO CO., INC, priority 2009, published 2012).

Legend:
Assay type in all cases: cell-based
[1] = molecular target: T1, human NHE3 (Homo sapiens, UniProt P48764); experiment: Improved version of measurements of NHE3 inhibitory activities (OK26 ND cell lines); details: OK26 ND cell lines (opNHE1 expression reduced by 90%), measurement time 8 minutes at 26° C.; read-out: hNHE3 IC50
T1 construct: expressed in transfected cells; host or cells: OK26 cells (opossum kidney OK cells); OK26 ND sublines with opNHE1 reduced by 90% for A3
T1 sequence (P48764 26-834): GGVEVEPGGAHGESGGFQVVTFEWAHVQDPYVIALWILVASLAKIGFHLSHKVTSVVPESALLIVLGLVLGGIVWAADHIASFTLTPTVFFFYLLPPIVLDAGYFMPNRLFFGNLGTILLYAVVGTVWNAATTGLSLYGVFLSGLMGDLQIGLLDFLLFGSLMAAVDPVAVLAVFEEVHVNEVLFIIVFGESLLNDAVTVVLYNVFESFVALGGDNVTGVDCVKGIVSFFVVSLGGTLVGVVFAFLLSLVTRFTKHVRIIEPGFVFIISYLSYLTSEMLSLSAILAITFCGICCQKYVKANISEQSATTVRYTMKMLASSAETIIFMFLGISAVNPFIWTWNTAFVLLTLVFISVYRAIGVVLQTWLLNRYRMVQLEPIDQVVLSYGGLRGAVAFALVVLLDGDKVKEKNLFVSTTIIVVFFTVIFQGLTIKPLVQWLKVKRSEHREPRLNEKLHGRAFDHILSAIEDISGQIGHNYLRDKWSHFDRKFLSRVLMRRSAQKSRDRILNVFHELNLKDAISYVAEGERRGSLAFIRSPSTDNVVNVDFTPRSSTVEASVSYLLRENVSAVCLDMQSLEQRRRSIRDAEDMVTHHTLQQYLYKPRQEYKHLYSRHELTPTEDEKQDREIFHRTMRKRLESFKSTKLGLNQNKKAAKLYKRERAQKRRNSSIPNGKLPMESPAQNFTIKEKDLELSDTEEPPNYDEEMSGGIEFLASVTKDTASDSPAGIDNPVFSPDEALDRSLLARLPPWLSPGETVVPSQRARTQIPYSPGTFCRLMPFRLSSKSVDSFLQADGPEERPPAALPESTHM
Description: Pharmacological Test Example 3: Improved Version of Measurements of NHE3 Inhibitory Activities
OK26 cells express endogeneous NHE1 (opNHE1). In order to evaluate NHE3 inhibitory activities more precisely, OK26 ND cell lines in which the expression level of opNHE1 is reduced by 90% were established. Measurements of NEE inhibitory activities were carried out by using the established cell lines in the same manner as described in Pharmacological Test Example 1 except that the measurement time was 8 minutes (at 26° C.) to calculate more precise NHE3 inhibitory activities.

[2] = molecular target: T2, NHE1 (Homo sapiens, UniProt P19634); experiment: Measurements of NHE1 inhibitory activities (HLF cells, BCECF pH recovery); details: HLF cells (human hepatoma cell line), measured after 10 minutes; read-out: hNHE1 IC50
T2 construct: HLF cells (Human hepatoma cell line) were used as cells for the test; endogenous in cells; host or cells: HLF cells (human hepatoma cell line)
Description: Pharmacological Test Example 1: Measurements of NHE1 Inhibitory Activities
(§1) HLF cells (Human hepatoma cell line) were used as cells for the test. After 1×10^4 cells/well were seeded to a 96-well plate and cultured for 3 days, they were cultured overnight under a serum-free medium. Then, the cells were incubated in a stain solution of Tetramethylammonium (TMA) Buffer (130 mM TMA-C1, 5 mM KCl, 2 mM CaCl2, 1 mM MgSO2, 25 mM glucose, 20 mM HEPES; pH 7.4) containing 40 mM NH4Cl and 1 μg/mL pH-sensitive fluorescent indicator BCECF-AM at 37° C. for 40 minutes and then BCECF was introduced into the cells. After the cells were washed once with TMA Buffer and incubated in TMA+40 mM NH4Cl solution at 37° C. for 15 minutes, the solution was removed and 20 μL/well of TMA Buffer and 10 μL/well of each test compound solution prepared with TMA Buffer were added to each well. The measurements were carried out by adding 200 μL/well of Na Buffer (130 mM, NaCl, 5 mM KCl, 2 mM CaCl2, 1 mM MgSO2, 1 mM NaH2PO4, 25 mM glucose, 20 mM HEPES; pH 7.4) or TMA Buffer (for base measurement), immediately placing it on FlexStation (Molecular Device) and then, after 10 minutes, measuring, it the two wavelengths of 505 nm (excitation wavelength)/530 nm (emission wavelength) (measurement value) and 440 nm (excitation wavelength)/530 nm (emission wavelength) (isosbestic point value). A NHE activity was calculated by dividing a measurement value by an isosbestic point value and a NHE1 inhibitory activity was calculated by the following equation. NHE1 inhibitory activity (%)=100×(1−(Measurement value [addition of each compound]−Base [addition of TMA Buffer])/(Control [addition of Na Buffer]−Base [addition of TMA Buffer]))

[3] = molecular target: T1, human NHE3; experiment: Measurements of NHE3 inhibitory activities (OK26 cells); details: OK26 cells (opossum kidney cells overexpressing human NHE3), measurement time 5 minutes at 37° C.; read-out: hNHE3 IC50
Description: as §1
Pharmacological Test Example 2: Measurements of NHE3 Inhibitory Activities.
OK26 cells (OK (opossum kidney) cells in which human NHE3 genes are overexpressed) were used as cells for the test. The measurements were carried out in the same manner as described in Pharmacological Test Example 1 except that the measurement time was 5 minutes (at 37° C.) to calculate NHE3 inhibitory activities.

T2 sequence (P19634 whole entry): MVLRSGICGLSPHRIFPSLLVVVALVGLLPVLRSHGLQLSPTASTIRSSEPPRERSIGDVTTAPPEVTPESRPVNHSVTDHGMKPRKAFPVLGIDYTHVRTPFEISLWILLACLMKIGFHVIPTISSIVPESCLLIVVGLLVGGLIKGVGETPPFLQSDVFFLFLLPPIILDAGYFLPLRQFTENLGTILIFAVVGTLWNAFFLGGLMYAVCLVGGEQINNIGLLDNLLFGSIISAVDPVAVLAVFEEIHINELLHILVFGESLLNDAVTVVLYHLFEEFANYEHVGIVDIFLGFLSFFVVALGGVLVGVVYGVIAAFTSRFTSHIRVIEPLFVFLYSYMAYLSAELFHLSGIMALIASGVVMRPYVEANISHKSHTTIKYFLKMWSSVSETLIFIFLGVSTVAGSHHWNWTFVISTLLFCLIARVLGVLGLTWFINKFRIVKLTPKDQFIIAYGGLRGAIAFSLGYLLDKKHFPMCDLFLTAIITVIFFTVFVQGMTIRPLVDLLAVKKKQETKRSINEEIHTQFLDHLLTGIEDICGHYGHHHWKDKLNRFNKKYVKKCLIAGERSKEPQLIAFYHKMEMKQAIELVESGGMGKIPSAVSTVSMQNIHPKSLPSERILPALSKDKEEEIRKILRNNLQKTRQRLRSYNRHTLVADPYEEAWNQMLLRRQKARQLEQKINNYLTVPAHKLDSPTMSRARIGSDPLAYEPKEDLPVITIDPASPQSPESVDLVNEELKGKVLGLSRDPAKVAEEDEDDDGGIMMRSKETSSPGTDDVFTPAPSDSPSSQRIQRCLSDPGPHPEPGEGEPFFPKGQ

Molecule `C/C(=C\c1ccccc1-c1ccc(O)c(F)c1)C(=O)NC(=N)N` [Example 24, N-[(E)-3-(3′-fluoro-4′-hydroxy-biphenyl-2-yl)-2-methyl-acryloyl]-guanidine] has an IC50 [1] of 210 nM, an IC50 [2] of 1200 nM and an IC50 [3] of 470 nM.
`C/C(=C\c1ccccc1-c1ccc(B(O)O)cc1)C(=O)NC(=N)N` [Example 11, N-[(E)-3-(4′-boronic acid-biphenyl-2-yl)-2-methyl-acryloyl]guanidine] showed an IC50 [1] of 100 nM, an IC50 [2] of 1200 nM and an IC50 [3] of 230 nM.
In the case of `C/C(=C\c1ccccc1-c1ccc(C(=O)O)cc1)C(=O)NC(=N)N` [Example 10, (E)-2′-(3-guanidino-2-methyl-3-oxo-propenyl)-biphenyl-4-carboxylic acid], the IC50 [3] is reported as 1600 nM.
In the case of `C/C(=C\c1ccccc1-c1ccc(O)c(O)c1)C(=O)NC(=N)N` [Example 26, N-[(E)-3-(3′,4′-dihydroxy-biphenyl-2-yl)-2-methyl-acryloyl]-guanidine], the IC50 [1] is reported as 230 nM, the IC50 [2] is reported as 500 nM and the IC50 [3] is reported as 230 nM.
Molecule `C/C(=C\c1ccc(C)cc1-c1ccc(O)cc1)C(=O)NC(=N)N` [Example 47, N-[(E)-3-(4′-hydroxy-5-methyl-biphenyl-2-yl)-2-methyl-acryloyl]-guanidine] has an IC50 [1] of 60 nM, an IC50 [2] of 1600 nM and an IC50 [3] of 190 nM.
For `C/C(=C\c1ccccc1-c1cc(C)c(O)c(C)c1)C(=O)NC(=N)N` [Example 22, N-[(E)-3-(3′,5′-dimethyl-4′-hydroxy-biphenyl-2-yl)-2-methyl-acryloyl]-guanidine], the IC50 [1] was 230 nM, the IC50 [2] was 3100 nM and the IC50 [3] was 230 nM.
Molecule `C/C(=C\c1ccccc1-c1cccc(O)c1)C(=O)NC(=N)N` [Example 13, N-[(E)-3-(3′-hydroxy-biphenyl-2-yl)-2-methyl-acryloyl]guanidine] has an IC50 [1] of 110 nM and an IC50 [3] of 210 nM.
`C/C(=C\c1ccc(-c2ccc(O)cc2C)cc1)C(=O)NC(=N)N` [Example 86, N-[(E)-3-(4′-hydroxy-2′-methyl-biphenyl-4-yl)-2-methyl-acryloyl]-guanidine] was tested, and the IC50 [3] was 230 nM.
Molecule `C/C(=C\c1ccc(-c2ccccc2O)cc1)C(=O)NC(=N)N` [Example 88, N-[3-(2′-hydroxy-biphenyl-4-yl)-2-methyl-acryloyl]-guanidine] has an IC50 [3] of 480 nM.
`C/C(=C\c1ccc(-c2cccc(O)c2)cc1-c1cccc(O)c1)C(=O)NC(=N)N` [Example 77, N-[(E)-3-(2,4-di(3-hydroxyphenyl)-phenyl)-2-methyl-acryloyl]-guanidine] was tested, and the IC50 [1] was 61 nM and the IC50 [2] was 940 nM.
Work on `C/C(=C\c1ccc(C)cc1-c1ccc(O)c(O)c1)C(=O)NC(=N)N` [Example 69, N-[(E)-3-(3′,4′-dihydroxy-5-methyl-biphenyl-2-yl)-2-methyl-acryloyl]-guanidine] yielded an IC50 [1] of 100 nM and an IC50 [2] of 580 nM.
`C/C(=C\c1ccc(-c2ccc(O)cc2)cc1-c1ccc(O)cc1)C(=O)NC(=N)N` [Example 72, N-[(E)-3-(2,4-di(4-hydroxyphenyl)-phenyl)-2-methyl-acryloyl]-guanidine] gave an IC50 [1] of 87 nM and an IC50 [2] of 1100 nM.
For `C/C(=C\c1cccc(C)c1-c1cccc(O)c1)C(=O)NC(=N)N` [Example 68, N-[(E)-3-(3′-hydroxy-6-methyl-biphenyl-2-yl)-2-methyl-acryloyl]-guanidine], the IC50 [1] was 120 nM and the IC50 [2] was 1700 nM.
Work on `C/C(=C\c1ccc(-c2ccc(F)c(O)c2)cc1)C(=O)NC(=N)N` [Example 89, N-[(E)-3-(4′-fluoro-3′-hydroxy-biphenyl-4-yl)-2-methyl-acryloyl]-guanidine] yielded an IC50 [3] of 860 nM.
`C/C(=C\c1ccccc1-c1ccc(O)c(C)c1)C(=O)NC(=N)N` [Example 61, N-[(E)-3-(4′-hydroxy-3′-methyl-biphenyl-2-yl)-2-methyl-acryloyl]-guanidine] gave an IC50 [1] of 400 nM and an IC50 [2] of 4300 nM.
With `C/C(=C\c1ccccc1-c1cc[nH]c1)C(=O)NC(=N)N` [Example 84, N-{(E)-2-methyl-3-[2-(1H-pyrrole-3-yl)-phenyl]-acryloyl}-guanidine] the IC50 [1] was 180 nM and the IC50 [2] was 2100 nM.
`COc1ccc(-c2cc(C)ccc2/C=C(\C)C(=O)NC(=N)N)cc1O` [Example 74, N-[(E)-3-(3′-hydroxy-4′-methoxy-5-methyl-biphenyl-2-yl)-2-methyl-acryloyl]-guanidine] was tested, and the IC50 [1] was 200 nM and the IC50 [2] was 1400 nM.
`C/C(=C\c1ccc(-c2cccc(O)c2)cc1)C(=O)NC(=N)N` [Example 87, N-[(E)-3-(3′-hydroxy-biphenyl-4-yl)-2-methyl-acryloyl]-guanidine] gave an IC50 [3] of 270 nM.
For `C/C(=C\c1ccccc1-c1ccc(O)cc1Cl)C(=O)NC(=N)N` [Example 60, N-[(E)-3-(2′-chloro-4′-hydroxy-biphenyl-2-yl)-2-methyl-acryloyl]-guanidine], the IC50 [1] was 310 nM and the IC50 [2] was 910 nM.
For `C/C(=C\c1ccccc1-c1cccc(C(=O)NO)c1)C(=O)NC(=N)N` [Example 55, (E)-2′-(3-guanidino-2-methyl-3-oxo-propenyl)-biphenyl-3-carboxylic acid hydroxyamide], the IC50 [1] was 440 nM and the IC50 [2] was 2900 nM.
In the case of `C/C(=C\c1ccccc1-c1ccc(O)cc1)C(=O)NC(=N)N` [Example 2, N-[(E)-3-(4′-hydroxy-biphenyl-2-yl)-2-methyl-acryloyl]-guanidine], the IC50 [1] is reported as 83 nM and the IC50 [3] is reported as 110 nM.
`C/C(=C\c1ccc(C(F)(F)F)cc1-c1ccc(O)cc1)C(=O)NC(=N)N` [Example 81, N-[(E)-3-(4′-hydroxy-5-trifluoromethyl-biphenyl-2-yl)-2-methyl-acryloyl]-guanidine] gave an IC50 [1] of 630 nM and an IC50 [2] of 5200 nM.
Work on `C/C(=C\c1c(F)cccc1-c1ccc(O)cc1)C(=O)NC(=N)N` [Example 82, N-[(E)-3-(3-fluoro-4′-hydroxy-biphenyl-2-yl)-2-methyl-acryloyl]-guanidine] yielded an IC50 [1] of 350 nM and an IC50 [2] of 6600 nM.
For `C/C(=C\c1ccccc1-c1ccc(O)cc1O)C(=O)NC(=N)N` [Example 53, N-[(E)-3-(2′,4′-hydroxy-2-yl)-2-methyl-acryloyl]-guanidine], the IC50 [1] was 740 nM and the IC50 [2] was 2900 nM.
`C/C(=C\c1ccccc1-c1ccc(C(=N)N)cc1)C(=O)NC(=N)N` [Example 56, (E)-2′-(3-guanidino-2-methyl-3-oxo-propenyl)-biphenyl-4-carboxamidine] showed an IC50 [1] of 400 nM and an IC50 [2] of 3400 nM.
`C/C(=C\c1cc(O)c(O)cc1-c1cccc(O)c1)C(=O)NC(=N)N` [Example 36, N-[(E)-2-methyl-3-(4,5,3′-trihydroxy-biphenyl-2-yl)-acryloyl]-guanidine] showed an IC50 [1] of 230 nM and an IC50 [3] of 320 nM.
